From ChEMBL document CHEMBL3044714, “Studies on fused heterocyclic 3,6-disubstituted-1,2,4-triazolo-1,3,4-thiadiazoles: synthesis and biological evaluation” (Med Chem Res, 2011)

Tests used:
[1] = tested on: Rattus norvegicus; experiment: Induction of lipid peroxidation in fasted Rattus norvegicus Wistar (rat) assessed as malondialdehyde level per 100 mg gastric mucosal tissue at 60 mg/kg, po measured after 17 hr by thiobarbuteric acid method; format: organism-based, Gastric mucosa; set-up: dose 60 mg/kg, route oral; conditions: in vivo
[2] = tested on: Rattus norvegicus; experiment: Ulcerogenic activity in fasted Rattus norvegicus Wistar (rat) assessed as ulcer index at 60 mg/kg, po measured after 17 hr; format: toxicity, organism-based; set-up: dose 60 mg/kg, route oral; conditions: in vivo
[3] = tested on: Mus musculus; experiment: Analgesic activity in Mus musculus albino (mouse) assessed as protection against acetic acid-induced writhing at 25 mg/kg, ip administered 20 min prior to acetic acid-challenge measured for 20 min relative to control; format: functional; conditions: route intraperitoneal
[4] = tested on: Rattus norvegicus; experiment: Anti-inflammatory activity in Rattus norvegicus Wistar (rat) assessed as inhibition of carrageenan-induced paw edema at 20 mg/kg, po administered 30 min prior to carrageenan-induced measured after 3 hr relative to control; format: functional
[5] = tested on: Rattus norvegicus; experiment: Anti-inflammatory activity in Rattus norvegicus Wistar (rat) assessed as inhibition of carrageenan-induced paw edema at 20 mg/kg, po administered 30 min prior to carrageenan-induced measured after 2 hr relative to control; format: functional

| Activity [1] | Compound | UI [2] | Activity [3] | inhibition in vivo at 20 mg/kg [4] | inhibition in vivo at 20 mg/kg [5] |
| --- | --- | --- | --- | --- | --- |
| 3.26 nmol | c1ccc(Cc2nnc3sc(-c4ccccc4Oc4ccccc4)nn23)cc1 | 0.91 | 30.43% | 56.3% | 41% |
| 4.42 nmol | O=C(c1ccccc1)c1ccccc1-c1nn2c(COc3ccccc3)nnc2s1 | 1.25 | 43.48% | 63.3% | 54.8% |
|  | c1ccc(OCc2nnc3sc(Cc4cccc5ccccc45)nn23)cc1 |  |  | 24.6% | 18.5% |
|  | O=C(NCc1nn2c(COc3ccccc3)nnc2s1)c1ccccc1 |  |  | 37.1% | 35.9% |
| 3.15 nmol | c1ccc(OCc2nnc3sc(Cc4cc5ccccc5[nH]4)nn23)cc1 | 0.83 | 40.22% | 50.5% | 32.1% |
| 7.95 nmol | COc1ccc2c(c1)c(CC(=O)O)c(C)n2C(=O)c1ccc(Cl)cc1 [INDOMETHACIN] | 2.25 |  | 66.9% | 50.7% |
|  | O=C(NCc1nn2c(Cc3ccccc3)nnc2s1)c1ccccc1 |  |  | 28% | 21.2% |
|  | O=C(NCc1nn2c(-c3ccccc3O)nnc2s1)c1ccccc1 |  |  | 32.3% | 24.4% |
|  | Oc1ccccc1-c1nnc2sc(Cc3cccc4ccccc34)nn12 |  |  | 35% | 28% |
| 3.95 nmol | O=C(CCc1nn2c(COc3ccccc3)nnc2s1)c1ccccc1 | 1.16 | 65.58% | 70.9% | 56.5% |
|  | CC(=O)Oc1ccccc1C(=O)O [ASPIRIN] |  | 61.96% |  |  |
|  | c1ccc(Cc2nnc3sc(Cc4cc5ccccc5[nH]4)nn23)cc1 |  |  | 41% | 36.7% |
